Results: patent US20210329919A9, “SYNTHESIS AND ANTI-CANCER ACTIVITY OF COMMUNESIN ALKALOIDS” (Massachusetts Institute of Technology, priority 2019, published 2021)
In brackets after ≈: the same amount, converted by molar mass. Like-named read-outs stand apart in the source and are kept apart here.

Key:
[1] = test system: A549 (lung carcinoma); test: Cell viability assay (Cell Titer-Glo), A549; type: cell-based, human; conditions: read-out: IC50 (μM) A549
Experimental: (§1) Cells were grown in media supplemented with fetal bovine serum (FBS) and antibiotics ([…] and 100 U/mL streptomycin). Specifically, experiments were performed using the following cell lines and media compositions: HeLa (cervical adenocarcimona) and A549 (lung carcinoma) were grown in RPMI-1640+10% FBS; HCT-116 (colorectal carcinoma) was grown in DMEM+10% FBS; DU-145 (prostate carcinoma) and MCF7 (breast adenocarcinoma) were grown in EMEM+10% FBS. Cells were incubated at 37° C. in a 5% CO2, 95% humidity atmosphere.
(§2) Cells were plated at 2000 cells/well into duplicate assay plates in 50 L media into 384-well white, opaque, tissue-culture treated plates and allowed to adhere overnight at 37° C./5% CO2. Compounds were solubilized in DMSO as 1000× stocks and 100 nl was pin-transferred to cells (V&P pin tool mounted on Tecan Freedom Evo MCA96). Compounds were tested in 10-pt, 2-fold dilution with concentrations tested between 1 nM-20 μM for most compounds, except where indicated. DMSO (32 wells of 384-wells) was used as vehicle control. After 72 hours of incubation at 37° C./5% CO2, 10 L Cell Titer-Glo (Promega) was added to each well and plates were incubated at room temperature for 10 minutes before the luminescence was read on a Tecan M1000 plate reader. Cell Titer-Glo measures ATP levels of cells as a surrogate for cell viability. All compound-treated wells was normalized to the DMSO control averages and expressed as a % of DMSO viability. IC50 values were determined from the dose curves using Spotfire (Perkin Elmer).

[2] = test system: DU-145 (prostate carcinoma); test: Cell viability assay (Cell Titer-Glo), DU-145; type: cell-based, human; conditions: read-out: IC50 (μM) DU-145
Experimental: as §1, §2

[3] = test system: HCT-116 (colorectal carcinoma); test: Cell viability assay (Cell Titer-Glo), HCT-116; type: cell-based, human; conditions: read-out: IC50 (μM) HCT-116
Experimental: as §1, §2

[4] = test system: HeLa (cervical adenocarcinoma); test: Cell viability assay (Cell Titer-Glo), HeLa; type: cell-based, human; conditions: read-out: IC50 (μM) HeLa
Experimental: as §1, §2

[5] = test system: MCF7 (breast adenocarcinoma); test: Cell viability assay (Cell Titer-Glo), MCF7; type: cell-based, human; conditions: read-out: IC50 (μM) MCF7
Experimental: as §1, §2

[6] = test system: A549, DU-145, HCT116, HeLa and MCF7 cell lines; test: Cytotoxicity across all five cancer cell lines (text summary of Table 1); conditions: for decrease in potency/activity relative to (−)-communesin B (4): N8-H or N8-formyl vs N8-methyl
Experimental: as §1, §2
With samples of all known communesin alkaloids and a selection of unnatural derivatives in hand, the anticancer activity for this entire class of natural products was explored. While previous isolation reports have evaluated the activity of selected natural communesins, no comprehensive comparison of the entire class of alkaloids across multiple cell lines has been performed.

[7] = test system: P-388 lymphocytic leukemia cells; conditions: cultured mouse P-388 lymphocytic leukemia cells; cited from earlier work
[8] = test system: third instar larvae of silkworms; conditions: cited from earlier work; for insecticidal activity compared with communesin B (4): silkworms
[9] = test system: vasculogenesis; conditions: in vivo; cited from earlier work
[10] = test system: human leukemia cell lines; conditions: array of human leukemia cell lines; cited from earlier work
[11] = Homo sapiens, A549, cytotoxicity after 72 h of compound treatment, Cell Titer-Glo (ATP levels)
[12] = Homo sapiens, DU-145, cytotoxicity after 72 h of compound treatment, Cell Titer-Glo (ATP levels)
[13] = Homo sapiens, HCT-116, cytotoxicity after 72 h of compound treatment, Cell Titer-Glo (ATP levels)
[14] = Homo sapiens, cytotoxicity after 72 h of compound treatment, Cell Titer-Glo (ATP levels)
[15] = Homo sapiens, MCF7, cytotoxicity after 72 h of compound treatment, Cell Titer-Glo (ATP levels)
[16] = cytotoxicity after 72 h of compound treatment, Cell Titer-Glo (ATP levels)

CC(=O)N1CC[C@@]23c4ccccc4N[C@@H]4Nc5cccc6c5[C@@]42CCN([C@@H]13)[C@@H]6[C@H]1OC1(C)C [(−)-3, (−)-communesin E]
IC50 [1, 11]: > 500 µM | IC50 [2, 12]: > 500 µM | IC50 [3, 13]: > 500 µM | IC50 [4, 14]: > 500 µM | IC50 [5, 15]: > 500 µM | cytotoxic potency across all cell lines (in words) [6]: principally inactive

C/C=C/C=C/C(=O)N1CC[C@@]23c4ccccc4N[C@@H]4N(C)c5cccc6c5[C@@]42CCN([C@@H]13)[C@@H]6[C@H]1OC1(C)C [Communesin B (4), communesin B]
ED50, cytotoxicity [7]: 0.45 µg/mL (≈ 0.885 µM) | LD50, insecticidal ([8]; third instar larvae of silkworms, oral administration): 5 μg/g of diet

CCC[C@H](O)CC(=O)N1CC[C@@]23c4ccccc4N[C@@H]4N(C)c5cccc6c5[C@@]42CCN([C@@H]13)[C@@H]6[C@H]1OC1(C)C [(−)-10, (−)-communesin I]
IC50 [1, 16]: 120 µM | IC50 [2, 16]: > 125 µM | IC50 [3, 16]: > 125 µM | IC50 [4, 16]: 120 µM | IC50 [5, 16]: 90 µM

C/C=C/C=C/C(=O)N1CC[C@@]23c4ccccc4N[C@@H]4N(C=O)c5cccc6c5[C@@]42CCN([C@@H]13)[C@@H]6[C@H]1OC1(C)C [(+)-6, (+)-communesin D]
IC50 ([1]; Homo sapiens, A549, 72 h): > 125 µM | IC50 ([2]; Homo sapiens, DU-145, 72 h): 84 µM | IC50 ([3]; Homo sapiens, HCT-116, 72 h): 111 µM | IC50 ([4]; Homo sapiens, 72 h): 63 µM | IC50 ([5]; Homo sapiens, MCF7, 72 h): > 125 µM | decrease in potency/activity relative to (−)-communesin B (4) [6]: two- to threefold decrease in activity

CC(=O)N1CC[C@@]23c4ccccc4N[C@@H]4N(C)c5cccc6c5[C@@]42CCN([C@@H]13)[C@@H]6[C@H]1OC1(C)C [Communesin A (2), (−)-communesin A]
ED50, cytotoxicity [7]: 3.5 µg/mL (≈ 7.67 µM) | insecticidal activity compared with communesin B (4) [8]: lower insecticidal activities | vasculogenetic activity [9]: moderate vasculogenetic activity

CC(=O)N1CC[C@@]23c4ccccc4N[C@@H]4N(C)c5cccc6c5[C@@]42CCN([C@@H]6C=C(C)C)[C@@H]13 [Communesin F (1), (−)-communesin F]
insecticidal activity compared with communesin B (4) [8]: lower insecticidal activities

C/C=C/C=C/C(=O)N1CC[C@@]23c4ccccc4N[C@@H]4Nc5cccc6c5[C@@]42CCN([C@@H]13)[C@@H]6[C@H]1OC1(C)C [communesin C (5), (−)-communesin C]
anti-proliferative activity [10]: moderate anti-proliferative activity

CC(=O)N1CC[C@@]23c4ccccc4N[C@@H]4N(C)c5cccc6c5[C@@]42CCN([C@@H]13)[C@@H]6[C@H]1OC1(C)C [(−)-2, (−)-communesin A]
IC50 [1, 11]: > 125 µM | IC50 [2, 12]: > 250 µM | IC50 [3, 13]: > 250 µM | IC50 [4, 14]: > 125 µM | IC50 [5, 15]: > 250 µM | cytotoxic potency across all cell lines (in words) [6]: principally inactive

C/C=C/C=C/C(=O)N1CC[C@@]23c4ccccc4N[C@@H]4N(C)c5cccc6c5[C@@]42CCN([C@@H]13)[C@@H]6[C@H]1OC1(C)C [(−)-4, (−)-communesin B]
IC50 [1, 11]: 56 µM | IC50 [2, 12]: 45 µM | IC50 [3, 13]: 60 µM | IC50 [4, 14]: 47 µM | IC50 [5, 15]: 34 µM

C/C=C/C=C/C(=O)N1CC[C@@]23c4ccccc4N[C@@H]4Nc5cccc6c5[C@@]42CCN([C@@H]13)[C@@H]6[C@H]1OC1(C)C [(−)-5, (−)-communesin C]
IC50 ([1]; Homo sapiens, A549, 72 h): 115 µM | IC50 ([2]; Homo sapiens, DU-145, 72 h): 82 µM | IC50 ([3]; Homo sapiens, HCT-116, 72 h): 106 µM | IC50 ([4]; Homo sapiens, 72 h): 94 µM | IC50 ([5]; Homo sapiens, MCF7, 72 h): 65 µM | decrease in potency/activity relative to (−)-communesin B (4) [6]: two- to threefold decrease in activity

C/C=C/C=C/C(=O)N1CC[C@@]23c4ccccc4N[C@@H]4N(C)c5cccc6c5[C@@]42CCN([C@@H]13)[C@@H]6[C@H]1OC1(C)C [(−)-communesin B (4)]
cytotoxic potency across all cell lines (in words) [6]: highest potency of all the natural products tested

CC(=O)N1CC[C@@]23c4ccccc4N[C@@H]4N(C=O)c5cccc6c5[C@@]42CCN([C@@H]13)[C@@H]6[C@H]1OC1(C)C [(+)-43, (+)-N8-formyl communesin E]
IC50 [1, 11]: > 250 µM | IC50 [2, 12]: > 250 µM | IC50 [3, 13]: > 250 µM | IC50 [4, 14]: > 125 µM | IC50 [5, 15]: > 250 µM | cytotoxic potency across all cell lines (in words) [6]: principally inactive

CCCC(=O)N1CC[C@]23c4ccccc4N[C@H]4N(C)c5cccc6c5[C@]42CCN([C@H]6[C@@H]2OC2(C)C)[C@H]13 [(−)-8, (−)-communesin H]
IC50 [1, 16]: > 125 µM | IC50 [2, 16]: > 125 µM | IC50 [3, 16]: 109 µM | IC50 [4, 16]: 82 µM | IC50 [5, 16]: 90 µM

CC(=O)N1CC[C@@]23c4ccccc4N[C@@H]4N(C)c5cccc6c5[C@@]42CCN([C@@H]6C=C(C)C)[C@@H]13 [(−)-1, (−)-communesin F]
IC50 [1, 16]: 117 µM | IC50 [2, 16]: 119 µM | IC50 [3, 16]: > 125 µM | IC50 [4, 16]: 115 µM | IC50 [5, 16]: 84 µM

C/C=C/C=C/C(=O)N1CC[C@@]23c4ccccc4N[C@@H]4N(C)c5cccc6c5[C@@]42CCN([C@@H]13)[C@@H]6[C@H]1OC1(C)C [(−)-communesin B]
cytotoxic potency across all cell lines (in words) ([6]; A549, DU-145, HCT116, HeLa, MCF7): most potent natural isolate

CCC(=O)N1CC[C@]23c4ccccc4N[C@H]4N(C)c5cccc6c5[C@]42CCN([C@H]6[C@@H]2OC2(C)C)[C@H]13 [(−)-7, (−)-communesin G]
IC50 [1, 16]: > 125 µM | IC50 [2, 16]: > 125 µM | IC50 [3, 16]: > 125 µM | IC50 [4, 16]: > 125 µM | IC50 [5, 16]: > 250 µM | cytotoxic potency across all cell lines (in words) [6]: principally inactive

C/C=C/C=C/C(=O)N1CC[C@@]23c4ccccc4N[C@@H]4N(C=O)c5cccc6c5[C@@]42CCN([C@@H]13)[C@@H]6[C@H]1OC1(C)C [communesin D (6), (+)-communesin D]
anti-proliferative activity [10]: moderate anti-proliferative activity | insecticidal activity compared with communesin B (4) [8]: lower insecticidal activities
